Laboratory results published in patent US8772299B2, “Phenyl piperazine compounds, pharmaceutical composition including the same and use thereof” (SK Biopharmaceuticals Co., Ltd., priority 2008, dated 2014).

How the values were obtained:
[1] = target: T1, Serotonin 1A (5-HT1A) receptor (Rattus norvegicus, UniProt P19327); test: Serotonin 1A (5-HT1A) receptor inhibition assay, [3H]8-OH-DPAT binding to rat cortex membranes; design: species or system Sprague-Dawley (SD) rats; details: 10 nM test compound; 0.92 nM [3H]8-OH-DPAT; rat cortex homogenate; 60 min at 25° C.
T1 construct: The cortex tissue were homogenized in 30 volumes of ice-cold 50 mM Tris-HCl buffer; from tissue; host or cells: Sprague-Dawley rat brain cortex membranes
T1 sequence (P19327 1-422): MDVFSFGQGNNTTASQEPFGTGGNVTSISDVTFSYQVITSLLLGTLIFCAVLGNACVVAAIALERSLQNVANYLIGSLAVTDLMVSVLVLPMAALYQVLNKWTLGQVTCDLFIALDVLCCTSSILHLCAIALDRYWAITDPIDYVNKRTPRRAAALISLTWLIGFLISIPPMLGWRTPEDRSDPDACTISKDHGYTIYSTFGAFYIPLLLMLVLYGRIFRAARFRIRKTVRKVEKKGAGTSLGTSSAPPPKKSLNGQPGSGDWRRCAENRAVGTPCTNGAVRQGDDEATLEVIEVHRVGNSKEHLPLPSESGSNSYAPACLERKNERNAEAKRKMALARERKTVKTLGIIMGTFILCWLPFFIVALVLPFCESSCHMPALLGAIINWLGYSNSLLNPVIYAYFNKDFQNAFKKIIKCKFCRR
Experimental: The method to test the ability of compounds to inhibit serotonin 1A(5-HT1A) receptors was using Hall. et al., J Neuro Chem., 1985, 44, p 1685-1696 with modification.
The Sprague-Dawley (SD) rats were killed by decapitation and their brains rapidly removed at 4° C. The cortex tissue were homogenized in 30 volumes of ice-cold 50 mM Tris-HCl buffer (pH7.4) using an ultra-turrax T8 and centrifuged at 48,000 g for 20 min. The supernatant was discarded and the pellet washed twice by resuspension in 20 volumes Tris-HCl and centrifugation, homogenized in 20 volumes Tris-HCl, and incubated at 37° C. for 10 min. Membranes were than collected by centrifugation and washed twice before final resuspension in 10 volumes of 50 mM Tris-HCl, pH7.4.
For binding assays, the incubation medium consisted of 162.5 ug of tissue homogenate, 0.92 nM of [3H]8-OH-DPAT and vehicle or 10 uM of 5-HT or 10 nM of test compounds per well. 5-HT and test compounds were dissolved in distilled water and incubation medium was 50 mM Tris(pH7.4 at room temperature). The assay plates (96 well) were incubated for 60 min at 25° C. The reaction was terminated by rapid filtration using a Tomtec harvester, through GF/C glassfibre filter with 5 times washes of Tris buffer. The radioactivity retained on the filters was counted by scintillation spectroscopy (MicroBeta TriLux, Wallac). The tests were triplicates. Percent inhibition was calculated as below equation.
Total binding is the value of vehicle treated group and specific binding is the values that deduct non-specific binding (i.e. the value of non-specific ligand, 5-HT).

mice [2] = test: Tail Suspension Test in Mice (TST); format: in vivo; details: Mus musculus, reduction in immobility vs control group, 1 mg/kg, po
Excerpt: Tail Suspension Test in mice is the well-known animal model to determine antidepressant efficacy of compounds by checking escaping behavior and immobility time of mice. Mice treated with antidepressant drug show escaping behavior continuously comparing with control group.
The mice were mainly treated orally with the test compound dissolved in 30% PEG400 or with only 30% PEG400 as control. Tail of mouse is suspended to the rod of TST equipment and end of tail is fixed with sticky tape. Suspended mouse is incubated during 2 min for training and adaptation and after following 2 min, observe escaping behavior and check immobility time for 4 min. The potent ability of the compounds was determined as percent value of reduction in immobility comparing to control group as 100% baseline.

mice [3] = test: Anti-Marble Burying Behavior Test in Mice; format: in vivo; details: Mus musculus, reduction in number of marbles buried, 7.5 mg/kg, ip
Excerpt: Marble burying was developed and validated as a pre-clinical assay of potential anxiolytic activity (Andrews and Broekkamp (1993). Procedures to Identify Anxiolytic or Anxiogenic agents. In Behavioural Neuroscience, ed. A Sahgal, pp. 37-54. IRL Press, Oxford). The marble burying test places a naive mouse into a novel environment containing 25 marbles (arranged on top of a sawdust surface). A reduction in the number of marbles buried by the mouse was hypothesized to be an anxiolytic-like effect.

inhibition at 0.01 µM [1] [%]	SMILES	inhibition in vivo at 1 mg/kg (mice [2]) [%]	inhibition in vivo at 7.5 mg/kg (mice [3]) [%]
51	COc1ccccc1N1CCN(CCCCOc2ccc(CCn3ccnn3)cc2)CC1 [Example 50, 1-(2-methoxy-phenyl)-4-{4-[4-(2-[1,2,3]triazol-1-yl-ethyl)-phenoxy]-butyl}-piperazine]	46.9	96.8
47	COc1ccccc1N1CCN(CCCCOc2ccc(CCn3ncnn3)cc2)CC1 [Example 51, 1-(2-methoxy-phenyl)-4-{4-[4-(2-tetrazol-2-yl-ethyl)-phenoxy]-butyl}-piperazine]	14.7	44.4
